pIC50: −log10 of the molar value.
System: 967376-340-R-J2-PDC multicell spheroid viability
Assay: Anticancer human tumor 967376-340-R-J2-PDC patient-derived colon adenocarcinoma cell line growth inhibition [PI3K]
Details: for pIC50: curve of first compound; for viability, T/C: stronger effect = lower value
Method in brief: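 Targeted small molecules plus PI3K inhibitors, half-log dose series from Cmax (default top 10 microM), were applied to heterotypic spheroids of cancer cells with HUVEC and MSCs. Viability indicated growth inhibition.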

[1] = second compound 0.00316 µM, first compound 0.0316 µM
[2] = second compound 0.00316 µM, first compound 0.1 µM
[3] = second compound 0.00316 µM, first compound 0.316 µM
[4] = second compound 0.00316 µM, first compound 1 µM
[5] = second compound 0.00316 µM, first compound 3.16 µM
[6] = second compound 0.00316 µM, first compound 10 µM
[7] = second compound 0.01 µM, first compound 0.0316 µM
[8] = second compound 0.01 µM, first compound 0.1 µM
[9] = second compound 0.01 µM, first compound 0.316 µM
[10] = second compound 0.01 µM, first compound 1 µM
[11] = second compound 0.01 µM, first compound 3.16 µM
[12] = second compound 0.01 µM, first compound 10 µM
[13] = second compound 0.0316 µM, first compound 0.0316 µM
[14] = second compound 0.0316 µM, first compound 0.1 µM
[15] = second compound 0.0316 µM, first compound 0.316 µM
[16] = second compound 0.0316 µM, first compound 1 µM
[17] = second compound 0.0316 µM, first compound 3.16 µM
[18] = second compound 0.0316 µM, first compound 10 µM
[19] = second compound 0.1 µM, first compound 0.0316 µM
[20] = second compound 0.1 µM, first compound 0.1 µM
[21] = second compound 0.1 µM, first compound 0.316 µM
[22] = second compound 0.1 µM, first compound 1 µM
[23] = second compound 0.1 µM, first compound 3.16 µM
[24] = second compound 0.1 µM, first compound 10 µM
[25] = second compound 0.316 µM, first compound 0.0316 µM
[26] = second compound 0.316 µM, first compound 0.1 µM
[27] = second compound 0.316 µM, first compound 0.316 µM
[28] = second compound 0.316 µM, first compound 1 µM
[29] = second compound 0.316 µM, first compound 3.16 µM
[30] = second compound 0.316 µM, first compound 10 µM
[31] = second compound 1 µM, first compound 0.0316 µM
[32] = second compound 1 µM, first compound 0.1 µM
[33] = second compound 1 µM, first compound 0.316 µM
[34] = second compound 1 µM, first compound 1 µM
[35] = second compound 1 µM, first compound 3.16 µM
[36] = second compound 1 µM, first compound 10 µM
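Further: spheroids exposed to agents for 7 days before read-out.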
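Wherever viability, T/C is given: luminescence used as surrogate of cell viability.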

SMILES: CC1(C)CCC(CN2CCN(c3ccc(C(=O)NS(=O)(=O)c4ccc(NCC5CCOCC5)c([N+](=O)[O-])c4)c(Oc4cnc5[nH]ccc5c4)c3)CC2)=C(c2ccc(Cl)cc2)C1 + COc1c(OCCCN2CCOCC2)ccc2c3n(c(=NC(=O)c4cnc(N)nc4)nc12)CCN3
- pIC50 (second compound 0.00316 µM): < 5.00
- pIC50 (second compound 0.01 µM): < 5.00
- pIC50 (second compound 0.0316 µM): 5.10
- pIC50 (second compound 0.1 µM): 5.92
- pIC50 (second compound 0.316 µM): > 7.50
- pIC50 (second compound 1 µM): > 7.50
- viability, T/C [1]: 92.6%
- viability, T/C [2]: 82%
- viability, T/C [3]: 94.8%
- viability, T/C [4]: 108%
- viability, T/C [5]: 81.6%
- viability, T/C [6]: 64.3%
- viability, T/C [7]: 83.2%
- viability, T/C [8]: 87.6%
- viability, T/C [9]: 82.9%
- viability, T/C [10]: 75.8%
- viability, T/C [11]: 76.4%
- viability, T/C [12]: 55.8%
- viability, T/C [13]: 76.9%
- viability, T/C [14]: 73.6%
- viability, T/C [15]: 63.6%
- viability, T/C [16]: 67.2%
- viability, T/C [17]: 62.6%
- viability, T/C [18]: 46.1%
- viability, T/C [19]: 56.6%
- viability, T/C [20]: 67%
- viability, T/C [21]: 44.2%
- viability, T/C [22]: 48.5%
- viability, T/C [23]: 54.6%
- viability, T/C [24]: 39.5%
- viability, T/C [25]: 35.4%
- viability, T/C [26]: 44.6%
- viability, T/C [27]: 31.2%
- viability, T/C [28]: 40%
- viability, T/C [29]: 37.4%
- viability, T/C [30]: 21.4%
- viability, T/C [31]: 48.5%
- viability, T/C [32]: 28.9%
- viability, T/C [33]: 35.2%
- viability, T/C [34]: 24.8%
- viability, T/C [35]: 30.9%
- viability, T/C [36]: 27.8%

SMILES: C[C@@H](NC(=O)c1ncnc(N)c1Cl)c1ncc(C(=O)Nc2cc(C(F)(F)F)c(Cl)cn2)s1 + COc1c(OCCCN2CCOCC2)ccc2c3n(c(=NC(=O)c4cnc(N)nc4)nc12)CCN3
- pIC50 (second compound 0.00316 µM): < 5.00
- pIC50 (second compound 0.01 µM): < 5.00
- pIC50 (second compound 0.0316 µM): < 5.00
- pIC50 (second compound 0.1 µM): < 5.00
- pIC50 (second compound 0.316 µM): > 7.50
- pIC50 (second compound 1 µM): > 7.50
- viability, T/C [1]: 94.3%
- viability, T/C [2]: 86.9%
- viability, T/C [3]: 80.6%
- viability, T/C [4]: 89.7%
- viability, T/C [5]: 120%
- viability, T/C [6]: 123%
- viability, T/C [7]: 93.2%
- viability, T/C [8]: 84.5%
- viability, T/C [9]: 91.9%
- viability, T/C [10]: 100%
- viability, T/C [11]: 112%
- viability, T/C [12]: 91.3%
- viability, T/C [13]: 67.7%
- viability, T/C [14]: 77.1%
- viability, T/C [15]: 71.9%
- viability, T/C [16]: 63%
- viability, T/C [17]: 93.3%
- viability, T/C [18]: 107%
- viability, T/C [19]: 66.6%
- viability, T/C [20]: 51.5%
- viability, T/C [21]: 70.1%
- viability, T/C [22]: 62.7%
- viability, T/C [23]: 62.8%
- viability, T/C [24]: 70.2%
- viability, T/C [25]: 49%
- viability, T/C [26]: 49.6%
- viability, T/C [27]: 49.2%
- viability, T/C [28]: 43.2%
- viability, T/C [29]: 56.6%
- viability, T/C [30]: 62.6%
- viability, T/C [31]: 43%
- viability, T/C [32]: 33%
- viability, T/C [33]: 38.5%
- viability, T/C [34]: 38.1%
- viability, T/C [35]: 45.7%
- viability, T/C [36]: 45%

SMILES: Cn1ncnc1[C@H]1c2n[nH]c(=O)c3cc(F)cc(c23)N[C@@H]1c1ccc(F)cc1 + COc1c(OCCCN2CCOCC2)ccc2c3n(c(=NC(=O)c4cnc(N)nc4)nc12)CCN3
- pIC50 (second compound 0.00316 µM): < 7.00
- pIC50 (second compound 0.01 µM): < 7.00
- pIC50 (second compound 0.0316 µM): < 7.00
- pIC50 (second compound 0.1 µM): < 7.00
- pIC50 (second compound 0.316 µM): > 9.50
- pIC50 (second compound 1 µM): > 9.50
- viability, T/C (second compound 0.00316 µM, first compound 0.000316 µM): 102%
- viability, T/C (second compound 0.00316 µM, first compound 0.001 µM): 95%
- viability, T/C (second compound 0.00316 µM, first compound 0.00316 µM): 76.1%
- viability, T/C (second compound 0.00316 µM, first compound 0.01 µM): 97%
- viability, T/C [1]: 88.7%
- viability, T/C [2]: 105%
- viability, T/C (second compound 0.01 µM, first compound 0.000316 µM): 76.6%
- viability, T/C (second compound 0.01 µM, first compound 0.001 µM): 94.9%
- viability, T/C (second compound 0.01 µM, first compound 0.00316 µM): 81.1%
- viability, T/C (second compound 0.01 µM, first compound 0.01 µM): 73.9%
- viability, T/C [7]: 80.5%
- viability, T/C [8]: 87.9%
- viability, T/C (second compound 0.0316 µM, first compound 0.000316 µM): 85.2%
- viability, T/C (second compound 0.0316 µM, first compound 0.001 µM): 90.4%
- viability, T/C (second compound 0.0316 µM, first compound 0.00316 µM): 74.5%
- viability, T/C (second compound 0.0316 µM, first compound 0.01 µM): 70.9%
- viability, T/C [13]: 66.8%
- viability, T/C [14]: 73.4%
- viability, T/C (second compound 0.1 µM, first compound 0.000316 µM): 53.3%
- viability, T/C (second compound 0.1 µM, first compound 0.001 µM): 70.4%
- viability, T/C (second compound 0.1 µM, first compound 0.00316 µM): 56.5%
- viability, T/C (second compound 0.1 µM, first compound 0.01 µM): 53.5%
- viability, T/C [19]: 62.5%
- viability, T/C [20]: 56.4%
- viability, T/C (second compound 0.316 µM, first compound 0.000316 µM): 42.1%
- viability, T/C (second compound 0.316 µM, first compound 0.001 µM): 40.9%
- viability, T/C (second compound 0.316 µM, first compound 0.00316 µM): 44.6%
- viability, T/C (second compound 0.316 µM, first compound 0.01 µM): 36.2%
- viability, T/C [25]: 52.7%
- viability, T/C [26]: 43.2%
- viability, T/C (second compound 1 µM, first compound 0.000316 µM): 27.8%
- viability, T/C (second compound 1 µM, first compound 0.001 µM): 26.8%
- viability, T/C (second compound 1 µM, first compound 0.00316 µM): 39.8%
- viability, T/C (second compound 1 µM, first compound 0.01 µM): 55.2%
- viability, T/C [31]: 32.9%
- viability, T/C [32]: 26.9%

From PubChem BioAssay AID1963962 (Molecular Pharmacology Branch, DTP, NCI, 2024)
